Tested on: 661W cells expressing CNGA3 plus WT CNGB3
Assay: LDH-release cytotoxicity assay, cells expressing WT channels
Type: cell-based, mouse
Conditions: 24 h
Procedure: The mouse photoreceptor 661W cell line used in this study was generously provided by Dr. Al-Ubaidi (University of Oklahoma Health Sciences Center, Oklahoma City, OK). The 661W cells were routinely maintained in Dulbecco’s modified Eagle’s medium (Gibco, Carlsbad, CA), supplemented with 10% fetal bovine serum (Gemini Bioproducts, Sacramento, CA) and 1% penicillin/streptomycin (Gibco), at 37 °C in a humidified incubator with 5% CO2; cells were subcultured every 3–5 days. The 661W cells were transfected with pOPRSVI plasmids encoding human cone CNG channel subunits using Lipofectamine™ 2000 and OptiMEM (Life Technologies, Carlsbad, CA) according to the manufacturer’s protocol for cells in suspension. […]
For most experiments, the LDH Cytotoxicity Detection Kit (Roche Applied Science) was used according to the manufacturer’s protocol (see also [37]). […] Following treatment, half of the culture medium was transferred to another 96-well plate and the LDH released into the culture medium was measured to assess the number of damaged/dead cells. Cells in the original plate were then lysed and the total amount of cellular LDH was assessed. The percentage cytotoxicity was then calculated from the ratio of LDH concentration in the medium/cells, and was normalized to the percentage cytotoxicity in untreated cells transfected with control pOPRSVI plasmid only.

| SMILES | relative cytotoxicity (LDH release, normalized to untreated vector-only control) (1 µM CPT-cAMP coapplied with 0.1 µM CPT-cGMP) | relative cytotoxicity (LDH release, normalized to untreated vector-only control) (0.1 µM CPT-cGMP) |
| --- | --- | --- |
| Nc1ncnc2c1nc(Sc1ccc(Cl)cc1)n2[C@@H]1O[C@@H]2COP(=O)(O)O[C@H]2[C@H]1O [CPT-cAMP, CPT-adenosine 3′,5′-cyclic monophosphate] | 0.98±0.03 |  |
| Nc1nc2c(nc(Sc3ccc(Cl)cc3)n2[C@@H]2O[C@@H]3COP(=O)(O)O[C@H]3[C@H]2O)c(=O)[nH]1 [CPT-cGMP, 8-(4-chlorophenylthio) guanosine 3′,5′-cyclic monophosphate] |  | 1.11±0.04 |

Reference: PMC3692405, “Disease-associated mutations in CNGB3 promote cytotoxicity in photoreceptor-derived cells” (Molecular Vision, 2013)
